This note sets out measurements from ChEMBL document CHEMBL5518235, “Identification of Novel Series of Potent and Selective Relaxin Family Peptide Receptor 1 (RXFP1) Agonists” (J Med Chem, 2024).

The nature of data set [1]: Metabolic stability in cryopreserved human hepatocytes assessed as unbound intrinsic clearance measured per 10^6 cells at 1 uM measured after 120 mins by LC-MS/MS analysis. The class given is ADME, cell-based, Hepatocyte. Particulars: 2 h.
Data set [2] can be described thus: Clearance in Han Wistar rat at 0.73 micromol/kg, iv by LC-MS/MS analysis. The class given is ADME, organism-based. Particulars: in vivo, dose 0.73 µmol/kg.
Data set [3] has as its target T1, A-type voltage-gated potassium channel KCND3 (Homo sapiens, UniProt Q9UK17).
T1 sequence (Q9UK17 whole entry): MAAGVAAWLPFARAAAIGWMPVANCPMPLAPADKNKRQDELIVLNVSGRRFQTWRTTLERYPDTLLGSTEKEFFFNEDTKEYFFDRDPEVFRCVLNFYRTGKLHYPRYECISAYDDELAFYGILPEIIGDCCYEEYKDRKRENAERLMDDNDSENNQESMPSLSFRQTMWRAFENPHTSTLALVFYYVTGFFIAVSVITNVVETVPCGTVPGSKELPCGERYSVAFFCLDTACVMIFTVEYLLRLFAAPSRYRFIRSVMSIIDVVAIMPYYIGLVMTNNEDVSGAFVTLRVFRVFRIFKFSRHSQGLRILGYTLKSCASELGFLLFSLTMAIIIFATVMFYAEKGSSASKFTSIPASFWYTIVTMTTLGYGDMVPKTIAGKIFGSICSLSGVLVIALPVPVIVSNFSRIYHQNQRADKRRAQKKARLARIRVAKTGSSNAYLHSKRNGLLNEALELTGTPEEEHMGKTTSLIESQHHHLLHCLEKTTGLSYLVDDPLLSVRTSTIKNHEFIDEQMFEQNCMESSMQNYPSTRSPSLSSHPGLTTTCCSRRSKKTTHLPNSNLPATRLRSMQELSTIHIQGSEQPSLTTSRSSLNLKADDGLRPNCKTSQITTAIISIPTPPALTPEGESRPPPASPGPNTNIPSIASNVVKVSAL
As to the kind of experiment: Inhibition of human Kv4.3 by automated electrophysiology recording. The class given is toxicity.

The target in data set [4] is Lutropin-choriogonadotropic hormone receptor (Homo sapiens, UniProt P22888). As to the kind of experiment: Agonist activity at LSHR (unknown origin) by arrestin technology based assay. The class given is functional.
Data set [5] addresses T2, Relaxin receptor 1 (Rattus norvegicus) (UniProt Q6R6I6).
T2 sequence (whole entry): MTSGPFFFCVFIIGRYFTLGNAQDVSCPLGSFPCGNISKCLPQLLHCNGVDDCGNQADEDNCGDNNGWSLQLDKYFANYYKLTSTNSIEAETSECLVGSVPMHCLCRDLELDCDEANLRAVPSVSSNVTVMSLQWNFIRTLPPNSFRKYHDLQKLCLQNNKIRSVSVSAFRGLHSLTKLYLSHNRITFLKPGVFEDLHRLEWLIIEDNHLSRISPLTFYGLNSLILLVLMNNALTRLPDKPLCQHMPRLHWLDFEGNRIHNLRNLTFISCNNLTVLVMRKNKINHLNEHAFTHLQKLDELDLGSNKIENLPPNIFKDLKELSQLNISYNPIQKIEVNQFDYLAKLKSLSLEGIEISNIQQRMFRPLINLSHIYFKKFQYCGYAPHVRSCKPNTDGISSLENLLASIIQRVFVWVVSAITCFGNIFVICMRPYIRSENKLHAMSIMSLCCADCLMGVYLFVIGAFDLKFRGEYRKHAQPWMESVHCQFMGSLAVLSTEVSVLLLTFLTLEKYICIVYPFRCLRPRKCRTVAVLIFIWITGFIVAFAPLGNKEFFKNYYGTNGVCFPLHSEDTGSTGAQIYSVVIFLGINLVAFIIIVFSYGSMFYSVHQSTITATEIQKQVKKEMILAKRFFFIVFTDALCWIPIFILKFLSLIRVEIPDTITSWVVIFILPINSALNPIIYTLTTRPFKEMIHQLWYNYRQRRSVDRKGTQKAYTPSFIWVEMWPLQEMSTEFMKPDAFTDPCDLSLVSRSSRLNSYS
Kind of data set: In vivo agonist activity at RXFP1 in Sprague-Dawley rat assessed as hemodynamic effect by measuring increase in blood pressure at 1.5 mg/kg, iv administered via bolus followed by 9.0 mg/kg, iv administered via infusion for 3 hrs and measured 1 hrs post washout. The class given is functional, organism-based.

Data set [6] can be described thus: Protein binding in rat plasma assessed as free fraction at 5 uM incubated for 18 hrs by equilibrium dialysis based LC-MS/MS analysis. The class given is ADME, cell-free. On the technique in general: In equilibrium dialysis free small molecules cross a membrane that holds back macromolecules.
Data set [7] addresses Voltage-gated inwardly rectifying potassium channel KCNH2 (Homo sapiens, UniProt Q12809). Kind of data set: Inhibition of human ERG by automated electrophysiology recording. The class given is toxicity.
Data set [8] has as its target Sodium channel protein type 5 subunit alpha (Homo sapiens, UniProt Q14524). As to the kind of experiment: Inhibition of human Nav1.5 by automated electrophysiology recording. Format: toxicity.
Data set [9] can be described thus: Cytotoxicity against human HepG2 cells cultured as C3a spheroids assessed as reduction in cell viability. Format: toxicity, cell-based.
Data set [10] is described as follows: Cytotoxicity against human HepG2 cells cultured under glucose condition assessed as reduction in cell viability. Format: toxicity, cell-based.
Data set [11] is described as follows: Solubility of compound in FaSSIF at pH 6.5. The class given is ADME.
Data set [12] can be described thus: Metabolic stability in Han Wistar rat hepatocytes assessed as intrinsic clearance measured per 10^6 cells at 1 uM after 120 mins by LC-MS/MS analysis. The class given is ADME, cell-based, Hepatocyte. Particulars: read-out: CLH.
For the next data set, the system named is IKs channel. Kind of data set: Inhibition of human IKS channel by automated electrophysiology recording. The class given is toxicity.
Data set [13] deals with T2, Relaxin receptor 1 (Rattus norvegicus). As to the kind of experiment: Agonist activity at rat RXFP1 expressed in T-Rex-CHO-K1 cells assessed as stimulation of cAMP production by measuring unbound concentration incubated for 60 mins by HTRF assay. The class given is functional, cell-based. Particulars: filed as agonist.
Data set [14] has the same target. As to the kind of experiment: In vivo agonist activity at RXFP1 in Sprague-Dawley rat assessed as hemodynamic effect by measuring increase in heart rate at 1.5 mg/kg, iv administered via bolus followed by 9.0 mg/kg, iv administered via infusion for 3 hrs and measured 1 hrs post washout. Format: functional, organism-based.
Another data set has as its target T3, Relaxin receptor 1 (Rattus norvegicus, UniProt Q6R6I6).
T3 sequence (Q6R6I6 whole entry): T2 sequence (whole entry)
Kind of data set: Agonist activity at rat RXFP1 expressed in T-Rex-CHO-K1 cells assessed as stimulation of cAMP production incubated for 60 mins by HTRF assay. Format: functional, cell-based. A general note: cAMP levels reflect the balance of adenylyl cyclase and phosphodiesterase activity.

SMILES strings stand for the structures. Converted amounts (≈) assume the structure as drawn. The source made the active and inactive calls. No cut-off for these calls is given here.

Sequence of Voltage-gated inwardly rectifying potassium channel KCNH2 (Q12809 whole entry): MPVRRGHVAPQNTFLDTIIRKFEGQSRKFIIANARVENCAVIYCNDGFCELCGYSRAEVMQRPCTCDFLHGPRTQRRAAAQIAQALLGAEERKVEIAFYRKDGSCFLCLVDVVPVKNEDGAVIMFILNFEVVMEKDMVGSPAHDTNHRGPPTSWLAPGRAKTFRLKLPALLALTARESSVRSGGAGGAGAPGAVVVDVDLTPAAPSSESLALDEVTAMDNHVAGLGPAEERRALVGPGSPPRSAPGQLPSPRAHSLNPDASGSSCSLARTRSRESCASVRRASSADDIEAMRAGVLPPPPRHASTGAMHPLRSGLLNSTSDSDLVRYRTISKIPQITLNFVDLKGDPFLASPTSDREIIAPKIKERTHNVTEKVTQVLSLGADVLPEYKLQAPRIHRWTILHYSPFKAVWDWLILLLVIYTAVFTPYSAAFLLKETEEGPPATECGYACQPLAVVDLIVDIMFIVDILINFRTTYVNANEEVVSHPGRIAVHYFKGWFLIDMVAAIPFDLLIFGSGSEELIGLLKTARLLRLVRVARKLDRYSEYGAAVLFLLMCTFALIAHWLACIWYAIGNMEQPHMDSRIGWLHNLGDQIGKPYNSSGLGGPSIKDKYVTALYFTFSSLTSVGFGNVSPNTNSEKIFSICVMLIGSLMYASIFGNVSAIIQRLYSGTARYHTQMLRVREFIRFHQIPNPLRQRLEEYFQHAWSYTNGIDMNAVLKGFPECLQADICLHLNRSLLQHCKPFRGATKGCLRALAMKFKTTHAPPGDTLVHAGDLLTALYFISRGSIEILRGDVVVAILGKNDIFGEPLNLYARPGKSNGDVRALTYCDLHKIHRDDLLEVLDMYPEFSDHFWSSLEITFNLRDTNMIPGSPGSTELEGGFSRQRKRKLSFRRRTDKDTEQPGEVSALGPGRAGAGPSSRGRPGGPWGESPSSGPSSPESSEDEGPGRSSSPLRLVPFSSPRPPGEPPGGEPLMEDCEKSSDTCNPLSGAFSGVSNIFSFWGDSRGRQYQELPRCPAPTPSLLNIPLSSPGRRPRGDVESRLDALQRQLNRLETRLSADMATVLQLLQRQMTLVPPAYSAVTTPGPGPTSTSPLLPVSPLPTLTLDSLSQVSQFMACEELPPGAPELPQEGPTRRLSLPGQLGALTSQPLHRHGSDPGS
Sequence of Lutropin-choriogonadotropic hormone receptor (P22888 whole entry): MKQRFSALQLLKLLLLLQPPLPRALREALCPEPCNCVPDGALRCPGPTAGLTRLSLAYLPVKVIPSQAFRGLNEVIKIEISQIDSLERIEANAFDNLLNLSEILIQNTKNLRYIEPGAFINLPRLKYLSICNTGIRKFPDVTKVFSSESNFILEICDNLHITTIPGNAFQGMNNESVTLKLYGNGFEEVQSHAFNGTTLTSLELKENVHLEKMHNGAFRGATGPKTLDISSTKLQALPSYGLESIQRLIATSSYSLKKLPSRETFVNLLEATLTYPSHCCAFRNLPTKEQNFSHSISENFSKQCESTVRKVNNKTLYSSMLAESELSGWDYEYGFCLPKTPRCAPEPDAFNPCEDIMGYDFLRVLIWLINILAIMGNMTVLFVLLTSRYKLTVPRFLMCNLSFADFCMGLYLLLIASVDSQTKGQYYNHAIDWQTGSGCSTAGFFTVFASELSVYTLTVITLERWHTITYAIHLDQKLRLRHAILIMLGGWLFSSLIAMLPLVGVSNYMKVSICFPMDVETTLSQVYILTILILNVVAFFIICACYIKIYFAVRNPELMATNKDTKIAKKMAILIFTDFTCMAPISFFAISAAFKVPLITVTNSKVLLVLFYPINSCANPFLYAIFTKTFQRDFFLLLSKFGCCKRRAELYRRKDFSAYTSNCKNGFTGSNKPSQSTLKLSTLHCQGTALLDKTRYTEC
Sequence of Sodium channel protein type 5 subunit alpha (Q14524 whole entry): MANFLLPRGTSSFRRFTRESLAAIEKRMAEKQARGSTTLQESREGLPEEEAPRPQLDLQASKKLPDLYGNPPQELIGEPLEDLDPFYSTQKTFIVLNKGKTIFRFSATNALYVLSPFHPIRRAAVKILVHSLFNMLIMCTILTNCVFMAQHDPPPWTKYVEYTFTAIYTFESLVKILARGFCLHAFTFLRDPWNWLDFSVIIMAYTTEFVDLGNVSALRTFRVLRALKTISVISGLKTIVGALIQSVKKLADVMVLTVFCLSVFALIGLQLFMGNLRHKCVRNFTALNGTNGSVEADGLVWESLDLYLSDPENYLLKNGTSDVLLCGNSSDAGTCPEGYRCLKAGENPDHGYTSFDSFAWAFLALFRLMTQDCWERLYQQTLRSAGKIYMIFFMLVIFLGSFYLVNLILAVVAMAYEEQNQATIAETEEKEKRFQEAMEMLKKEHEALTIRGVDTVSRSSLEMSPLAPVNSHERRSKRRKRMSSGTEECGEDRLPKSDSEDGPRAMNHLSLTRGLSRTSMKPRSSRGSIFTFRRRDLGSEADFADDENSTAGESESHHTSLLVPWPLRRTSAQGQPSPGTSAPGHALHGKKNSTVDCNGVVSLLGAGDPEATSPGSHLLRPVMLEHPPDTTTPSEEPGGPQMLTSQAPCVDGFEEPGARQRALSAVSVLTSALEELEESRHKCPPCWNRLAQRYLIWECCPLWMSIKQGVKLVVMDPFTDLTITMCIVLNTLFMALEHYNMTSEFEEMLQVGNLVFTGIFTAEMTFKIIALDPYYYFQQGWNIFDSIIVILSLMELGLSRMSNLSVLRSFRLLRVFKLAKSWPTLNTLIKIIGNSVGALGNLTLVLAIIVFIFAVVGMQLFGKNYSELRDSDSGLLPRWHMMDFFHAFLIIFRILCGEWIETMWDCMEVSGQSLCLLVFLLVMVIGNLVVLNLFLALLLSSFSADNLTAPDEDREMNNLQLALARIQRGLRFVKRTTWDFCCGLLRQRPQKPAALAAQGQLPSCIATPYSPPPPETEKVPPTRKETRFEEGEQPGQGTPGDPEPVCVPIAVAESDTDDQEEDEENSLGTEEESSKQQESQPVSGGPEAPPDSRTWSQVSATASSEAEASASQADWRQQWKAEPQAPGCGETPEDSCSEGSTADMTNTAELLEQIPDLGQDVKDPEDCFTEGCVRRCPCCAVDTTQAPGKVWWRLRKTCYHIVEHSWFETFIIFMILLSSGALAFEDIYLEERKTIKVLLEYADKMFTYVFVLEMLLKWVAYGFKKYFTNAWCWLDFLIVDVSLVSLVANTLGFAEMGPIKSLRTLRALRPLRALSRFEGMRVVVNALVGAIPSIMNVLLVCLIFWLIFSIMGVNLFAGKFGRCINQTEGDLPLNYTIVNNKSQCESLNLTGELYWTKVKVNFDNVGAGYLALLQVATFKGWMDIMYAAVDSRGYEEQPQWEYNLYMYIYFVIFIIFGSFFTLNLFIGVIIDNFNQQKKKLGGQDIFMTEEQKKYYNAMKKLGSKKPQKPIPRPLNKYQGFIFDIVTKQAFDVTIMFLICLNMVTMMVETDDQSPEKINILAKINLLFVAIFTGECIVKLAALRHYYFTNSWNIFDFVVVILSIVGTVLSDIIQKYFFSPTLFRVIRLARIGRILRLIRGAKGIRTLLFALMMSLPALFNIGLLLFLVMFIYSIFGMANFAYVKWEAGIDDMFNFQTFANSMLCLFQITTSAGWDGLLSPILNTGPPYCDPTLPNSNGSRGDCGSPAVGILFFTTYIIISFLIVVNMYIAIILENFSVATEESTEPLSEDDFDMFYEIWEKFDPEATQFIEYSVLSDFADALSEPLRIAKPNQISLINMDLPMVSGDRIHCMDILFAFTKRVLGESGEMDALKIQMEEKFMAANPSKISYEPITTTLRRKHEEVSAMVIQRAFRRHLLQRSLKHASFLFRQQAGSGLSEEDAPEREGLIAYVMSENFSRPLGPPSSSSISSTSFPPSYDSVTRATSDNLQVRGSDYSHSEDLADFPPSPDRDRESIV

The term clearance denotes a measure of how efficiently the substance is removed, as volume per time. Low values mean a low capacity for elimination, high ones a high capacity for elimination. By IC50 is commonly meant the concentration needed to halve the response being measured. What is called EC50 is the midpoint of the concentration-response curve. One may read the fraction unbound as free concentration divided by total concentration. In general, solubility refers to the dissolved amount per volume that the medium holds. The low end stands for a poorly soluble substance, the high end for a readily soluble substance. For the compound `COc1cc(F)c(O[C@H]2CC[C@@](C)(C(=O)O)CC2)cc1C(=O)N[C@@H]1[C@H]2CC[C@H](C2)[C@@H]1C(=O)Nc1ccc(F)c(S(F)(F)(F)(F)F)c1`, the CL free in data set [1] was found to be 2.1 µL/min. Further, the clearance in data set [2] worked out at 38 mL/min/kg. The 50% inhibitory concentration (IC50) in data set [3] was more than 33 µM; in [7], more than 39 µM; in data set [8], 21 µM; in data set [9], 17 µM; in [10], 68 µM; with IKs channel, more than 33 µM. Besides, the half-maximal effective concentration (EC50) in data set [4] is 46 µM; on Relaxin receptor 1 it was 0.2 µM. Also, the outcome in data set [5] and in data set [14] was Active. Also, the free fraction (fraction unbound) at 18 h, 5 µM in data set [6] came to 0.0015. Further, the solubility in data set [11] is 6.3 µM (≈ 4.3 µg/mL). Further, the hepatocyte CLint at 1 µM in [12] is 24 µL/min/1e6 cells. Further, the fEC50 in [13] was found to be 17 nM.
